US20220323383A1, “SMALL-MOLECULAR ADJUVANTS AND IMPLEMENTATIONS THEREOF” (JAWAHARLAL NEHRU CENTRE FOR ADVANCED SCIENTIFIC RESEARCH, priority 2019, published 2022)

Legend:
Assay type in all cases: cell-based
P. aeruginosa R590 [1] = assay: Chequerboard combination efficacy of adjuvant with antibiotics; conditions: P. aeruginosa R590
Method: (§1) All the solvents were of reagent grade, which were distilled and dried before its use. All the reagents were purchased from Sigma-Aldrich, Alfa-Aesar, S.D. Fine, Avra and Spectrochem, and were used without further purification. Analytical thin layer chromatography (TLC) was performed on E. Merck TLC plates pre-coated with silica gel 60 F254 and visualization was carried out using UV light and Iodine. Column chromatography was performed on silica gel (60-120 mesh) using different ratio of chloroform and methanol solvent system. Nuclear magnetic resonance spectra were recorded on Bruker (AV-400) 400 MHz spectrometer in deuterated solvents. Mass spectra were obtained using 6538-UHD Accurate mass Q-TOF LC-MS instrument. For optical density measurement during bacteriology experiments, Tecan Infinite Pro series M200 Microplate Reader was used. Bacterial strains, A. baumannii (R674), P. aeruginosa (R590), E. coli (R3336) and K. pneumoniae (R3934) were used for the studies.
(§2) The combination efficacy with antibiotics from different classes and individual antibacterial activity of the synthesized adjuvants was evaluated against the above mentioned MDR and NDM-1 strains of Gram-negative bacteria. All the bacteria were grown in peptone. The bacterial samples were freeze dried and stored at −80° C. 3 μl of these stocks were added to 3 mL of peptone and the culture was grown for 6 h at 37° C. prior to the experiments.
(§3) All synthesized compounds were assayed for their antibacterial activity in combination with antibiotics in a modified chequerboard micro-dilution broth format. Stock solutions were made by serially diluting the compounds using autoclaved millipore water. The bacterial freeze dried stock samples were stored at −80° C. About 3 μL of these stocks were added to about 3 mL of the respective broth and the culture was grown for about 6 h at about 37° C. with prior to the experiments. This 6 h grown culture gives about 10^8 cfu/mL in case of A. baumannii R674, P. aeruginosa R590, E. coli R3336 and K. pneumoniae R3934 which were determined by spread plating method. This 6 h grown culture was diluted to give effective cell concentration of 10^5 cfu/mL, and then used for the chequerboard assay. Adjuvants and antibiotics were serially diluted in two-fold, in sterile millipore water. 25 μL of these serial dilutions of the antibiotics and 25 μL of compounds were added to the wells of 96 well plate followed by the addition of about 150 μL of bacterial solution (˜10^5 cfu/mL). The plates were then incubated at about 37° C., 150 rpm in the incubator and O.D at 600 nm was recorded at 24 h using TECAN (Infinite series, M200 pro) Plate Reader. The wells with similar OD as the media control contained the required concentration of the antibiotic and adjuvant for antibacterial efficacy. The potentiation ability of the adjuvants was determined by calculating the potentiation factor and the Fractional Inhibitory concentration (FIC) index. Fractional Inhibitory Concentration (FIC) is expressed as, FIC=[X]/MICX, where [X] is the lowest inhibitory concentration of antibiotic in the presence of the adjuvant. Whereas FIC index is expressed as, FICI=FICantibiotic+FICadjuvant. The values of FIC index give an insight about the nature of the combination. Potentiation factor which means fold-reduction in the MIC of the antibiotic, when used in combination with the adjuvant was also determined. Potentiation factor=[Minimum inhibitory concentration (MIC) of antibiotic in absence of adjuvant]/[MIC of antibiotic in presence of adjuvant]. […] The combination efficacies of adjuvants with various antibiotics are furnished in Table 1. It should be noted that various other resistant strains of bacteria (Gram-positive and Gram-negative) can be tested with a number of other antibiotics to check the potentiation capacity of the adjuvants.

E. coli R3336 [2] = assay: as above
Method: as §1, §2, §3

A. baumannii R674 [3] = assay: as above
Method: as §1, §2, §3

K. pneumoniae R3934 [4] = assay: as above
Method: as §1, §2, §3

human RBCs = assay: Haemolytic activity; conditions: concentration at which 50% of human blood cells are lysed; 1 h at 37° C.
Method: Erythrocytes were isolated from freshly drawn, heparanized human blood and re-suspended to 5 vol % in PBS (pH 7.4). In a 96-well microtiter plate, 150 μl of erythrocyte suspension was added to 50 μl of serially diluted compound. Two controls were made, one without compound and other with 50 μl of 1 vol % solution of Triton X-100. The plate was incubated for 1 h at 37° C. The plate was then centrifuged at 3,500 rpm for 5 min, 100 μl of the supernatant from each well was transferred to a fresh 96-well microtiter plate, and A540 was measured. Percentage of hemolysis was determined as (A−A0)/(Atotal−A0)×100, where A is the absorbance of the test well, A0 the absorbance of the negative controls (without compound), and Atotal the absorbance of 100% hemolysis wells (with Triton X-100), all at 540 nm.
Toxicity studies of the compounds were done on freshly drawn human RBCs. Toxicity of the compounds were defined by their HC50 values (Table 2), i.e. the concentration of compound at which 50% of the blood cells are lysed.

P. aeruginosa R590 [5] = assay: Individual antibacterial activity (MIC) of adjuvants; conditions: adjuvant alone, P. aeruginosa R590
Method: as §2, §3

E. coli R3336 [6] = assay: as above; conditions: Escherichia coli, R3336, read-out: MIC against clinical isolates of bacteria
Method: as §2, §3

A. baumannii R674 [7] = assay: as above; conditions: adjuvant alone, A. baumannii R674
Method: as §2, §3

K. pneumoniae R3934 [8] = assay: as above; conditions: Klebsiella pneumoniae; adjuvant alone; K. pneumoniae R3934; read-out: MIC against clinical isolates of bacteria
Method: as §2, §3

## NCCCC[C@H](N)C(=O)NCCCCCCN(CCCCCCNC(=O)[C@@H](N)CCCCN)CC(=O)NC1C2CC3CC(C2)CC1C3 (stereo partly drawn) [Compound 15, N-(adamantan-2-yl)-2-[N′,N′-{bis-(6-^LLys) amido)hexyl} amino] ethanamide pentakistrifluoroacetate]
P. aeruginosa R590 [1]; antibiotic Chloramphenicol
  Potentiation factor: 4
P. aeruginosa R590 [1]; antibiotic Colistin
  FICI: 0.3125
  MIC of antibiotic in presence of adjuvant: 0.25 µg/mL
  Potentiation factor: 4
P. aeruginosa R590 [1]; antibiotic Daptomycin
  MIC of antibiotic in presence of adjuvant: No potentiation
P. aeruginosa R590 [1]; antibiotic Fusidic acid
  FICI: <0.1289
  MIC of antibiotic in presence of adjuvant: <0.25 µg/mL
  Potentiation factor: >256
P. aeruginosa R590 [1]; antibiotic Linezolid
  FICI: 0.2812
  Potentiation factor: 4
P. aeruginosa R590 [1]; antibiotic Minocycline
  FICI: 0.5
  MIC of antibiotic in presence of adjuvant: 2 µg/mL
  Potentiation factor: 4
P. aeruginosa R590 [1]; antibiotic Rifampicin
  FICI: <0.126
  MIC of antibiotic in presence of adjuvant: <0.125 µg/mL
  Potentiation factor: >1024
P. aeruginosa R590 [1]; antibiotic Tetracycline
  FICI: 0.5078
  MIC of antibiotic in presence of adjuvant: 2 µg/mL
  Potentiation factor: 128
E. coli R3336 [2]; antibiotic Fusidic acid
  FICI: <0.1875
  Potentiation factor: >16
E. coli R3336 [2]; antibiotic Linezolid
  MIC of antibiotic in presence of adjuvant: No potentiation
E. coli R3336 [2]; antibiotic Minocycline
  FICI: <0.0469
  MIC of antibiotic in presence of adjuvant: 0.5 µg/mL
  Potentiation factor: 64
E. coli R3336 [2]; antibiotic Rifampicin
  FICI: <0.0469
  MIC of antibiotic in presence of adjuvant: 16 µg/mL
  Potentiation factor: 32
A. baumannii R674 [3]; antibiotic Ampicillin
  MIC of antibiotic in presence of adjuvant: No potentiation
A. baumannii R674 [3]; antibiotic Ciprofloxacin
  FICI: 1.25
  MIC of antibiotic in presence of adjuvant: 64 µg/mL
  Potentiation factor: 4
A. baumannii R674 [3]; antibiotic Erythromycin
  FICI: 0.1875
  MIC of antibiotic in presence of adjuvant: 32 µg/mL
  Potentiation factor: 16
A. baumannii R674 [3]; antibiotic Fusidic acid
  FICI: <0.07
  MIC of antibiotic in presence of adjuvant: <0.5 µg/mL
  Potentiation factor: >128
A. baumannii R674 [3]; antibiotic Linezolid
  FICI: 1.125
  Potentiation factor: 8
A. baumannii R674 [3]; antibiotic Minocycline
  FICI: 0.5625
  MIC of antibiotic in presence of adjuvant: 0.5 µg/mL
  Potentiation factor: 16
A. baumannii R674 [3]; antibiotic Rifampicin
  FICI: 0.1289
  MIC of antibiotic in presence of adjuvant: 0.25 µg/mL
  Potentiation factor: 256
A. baumannii R674 [3]; antibiotic Streptomycin
  MIC of antibiotic in presence of adjuvant: No potentiation
A. baumannii R674 [3]; antibiotic Tetracycline
  FICI: 0.5156
  MIC of antibiotic in presence of adjuvant: 2 µg/mL
  Potentiation factor: 64
A. baumannii R674 [3]; antibiotic Vancomycin
  FICI: 0.5625
  Potentiation factor: 2
K. pneumoniae R3934 [4]; antibiotic Fusidic acid
  FICI: <0.0781
  MIC of antibiotic in presence of adjuvant: 8 µg/mL
  Potentiation factor: 64
K. pneumoniae R3934 [4]; antibiotic Linezolid
  MIC of antibiotic in presence of adjuvant: No potentiation
K. pneumoniae R3934 [4]; antibiotic Minocycline
  FICI: <0.07
  MIC of antibiotic in presence of adjuvant: 0.5 µg/mL
  Potentiation factor: 128
K. pneumoniae R3934 [4]; antibiotic Rifampicin
  FICI: <0.1289
  MIC of antibiotic in presence of adjuvant: 2 µg/mL
  Potentiation factor: 256
Human RBCs
  HC50: >1024 µg/mL
P. aeruginosa R590 [5]; Pseudomonas aeruginosa, read-out: MIC against clinical isolates of bacteria
  MIC: 64 µg/mL
E. coli R3336 [6]
  MIC: > 512 µg/mL
A. baumannii R674 [7]; Acinetobacter baumannii, read-out: MIC against clinical isolates of bacteria
  MIC: 128 µg/mL
K. pneumoniae R3934 [8]
  MIC: > 512 µg/mL

## NCCCCCCN(CCCCCCN)C(=O)Cc1cccc2ccccc12 [Compound 10, N,N-bis-[(6-amino)hexyl] naphthyl ethanamide bistrifluoroacetate]
P. aeruginosa R590 [1]; antibiotic Rifampicin
  FICI: <0.133
  MIC of antibiotic in presence of adjuvant: 1 µg/mL
  Potentiation factor: 128
P. aeruginosa R590 [1]; antibiotic Tetracycline
  FICI: <0.375
  MIC of antibiotic in presence of adjuvant: 32 µg/mL
  Potentiation factor: 8
A. baumannii R674 [3]; antibiotic Rifampicin
  FICI: <0.14
  MIC of antibiotic in presence of adjuvant: 1 µg/mL
  Potentiation factor: 64
A. baumannii R674 [3]; antibiotic Tetracycline
  FICI: <0.375
  MIC of antibiotic in presence of adjuvant: 16 µg/mL
  Potentiation factor: 8
Human RBCs
  HC50: >1024 µg/mL
P. aeruginosa R590 [5]
  MIC against clinical isolates of bacteria: >512 µg/mL
A. baumannii R674 [7]
  MIC against clinical isolates of bacteria: >512 µg/mL

## NCCCCCCN(CCCCCCN)C(=O)CC(c1ccccc1)c1ccccc1.O=C(O)C(F)(F)F.O=C(O)C(F)(F)F [Compound 11, N,N-bis-[(6-amino)hexyl] 3,3-diphenyl propanamide bistrifluoroacetate]
P. aeruginosa R590 [1]; antibiotic Rifampicin
  FICI: 0.07
  MIC of antibiotic in presence of adjuvant: 1 µg/mL
P. aeruginosa R590 [1]; antibiotic Tetracycline
  FICI: 0.375
  MIC of antibiotic in presence of adjuvant: 32 µg/mL
  Potentiation factor: 8
A. baumannii R674 [3]; antibiotic Rifampicin
  FICI: 0.1328
  MIC of antibiotic in presence of adjuvant: 0.5 µg/mL
  Potentiation factor: 128
A. baumannii R674 [3]; antibiotic Tetracycline
  FICI: 1
  MIC of antibiotic in presence of adjuvant: 64 µg/mL
  Potentiation factor: 2
Human RBCs
  HC50: >1024 µg/mL
P. aeruginosa R590 [5]
  MIC against clinical isolates of bacteria: 256 µg/mL
A. baumannii R674 [7]
  MIC against clinical isolates of bacteria: 128 µg/mL

## NCCCCCCN(CCCCCCN)CC(=O)NC1C2CC3CC(C2)CC1C3.O=C(O)C(F)(F)F.O=C(O)C(F)(F)F.O=C(O)C(F)(F)F (stereo not drawn) [Compound 12, N-(adamantan-2-yl)-2-[N′,N′-{bis-(6-amino)hexyl}amino] ethanamide tristrifluoroacetate]
P. aeruginosa R590 [1]; antibiotic Rifampicin
  FICI: 0.251
  MIC of antibiotic in presence of adjuvant: 0.125 µg/mL
  Potentiation factor: 1024
P. aeruginosa R590 [1]; antibiotic Tetracycline
  FICI: 0.75
  MIC of antibiotic in presence of adjuvant: 64 µg/mL
  Potentiation factor: 4
A. baumannii R674 [3]; antibiotic Rifampicin
  FICI: <0.252
  MIC of antibiotic in presence of adjuvant: <0.125 µg/mL
  Potentiation factor: >512
A. baumannii R674 [3]; antibiotic Tetracycline
  FICI: 0.625
  MIC of antibiotic in presence of adjuvant: 16 µg/mL
  Potentiation factor: 8
Human RBCs
  HC50: >1024 µg/mL
P. aeruginosa R590 [5]
  MIC against clinical isolates of bacteria: 64 µg/mL
A. baumannii R674 [7]
  MIC against clinical isolates of bacteria: 64 µg/mL
